Residues, ends and D or L forms follow the SMILES beside them. *: point of attachment. Cbz = O=C(OCc1ccccc1)*; CH2F = FC*
Assays:
[1] = test system: AGS; experiment: 72-h MTT cytotoxicity assay, AGS; assay type: cell-based; conditions: Homo sapiens, 72-h MTT, Table 1, read-out: IC50 Anti-proliferative effect on cell line AGS
Method in brief: (§1)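 Cell-based anti-proliferative read-out. p53 and HDM2 status differ by line: AGS (gastric adenocarcinoma) wild-type p53; SJSA-1 (multipotential bone sarcoma) wild-type p53 plus HDM2 overexpression; H1299 (large cell lung carcinoma) p53 null, HDM2 low.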

[2] = test system: key proteins in the HDM2 pathway; experiment: SDS-PAGE and immunoblotting of key proteins in the HDM2 pathway; assay type: cell-based, human
From the text: Equal amounts of cell lysate were separated by SDS-PAGE and analysed by immunoblotting using the indicated antibodies. An estimation of the extent of cell rounding is indicated above each lane. […] (B) The effect of compound 2 on the levels of the cell cycle proteins in AGS cells (wild-type 53). […] Equal amounts of cell lysate were separated by SDS-PAGE and analysed by immunoblotting using the indicated antibodies. An estimation of the extent of cell rounding is indicated above each lane. (C) The effect of negative control compound (refer Example 10), compound 2, cisplatin, and anisomycin on the levels of key proteins in MCF7 cells. […] Cisplatinum and anisomycin (a transcription inhibitor) treatments were with 50 μM or 37 μM, respectively. Cells were harvested at various time points; afterwards lysates were prepared and separated by SDS-PAGE and analysed by immunoblotting. The proteins detected are indicated. The extent of rounded or floating cells and the percentage viable cells were assessed. […] Equal amounts of cell lysate were separated by SDS-PAGE and analysed by immunoblotting using a range of antibodies. An estimation of the extent of cell rounding is indicated above each lane. […] SJSA1 cells were treated with 5 times [IC50] of compound 2 and collected at the indicated time points. Equal amounts of cell lysate were separated by SDS-PAGE and analysed by immunoblotting using a range of antibodies. An estimation of the extent of cell rounding is indicated above each lane.
Many types of cellular stress converge on the p53 pathway and induce its activity. […] The biological effect of bisarylsufonamides on cellular level was studies using representative compounds (mainly compound 2) and number of cell lines with different HDM2 and p53 status. These were overexpressing Hdm2 (SJSA1—osteosarcoma), wild type p53 and normal levels of HDM2 (AGS—gastric adenocarcinoma, MCF7—breast adenocarcinoma), or p53 null, low levels of HDM2 (H1299—large cell lung carcinoma).
Cells were lysed and equal amounts were analysed by SDS-polyacrylamide gel electrophoresis (SDS-PAGE) and immunoblotting.

[3] = test system: AGS, H1299, MCF7 or SJSA1 cells; experiment: Cell morphology (cell rounding); assay type: cell-based, human; conditions: five times IC50
From the text: Equal amounts of cell lysate were separated by SDS-PAGE and analysed by immunoblotting using the indicated antibodies. An estimation of the extent of cell rounding is indicated above each lane. The arrow indicates the position of a 85-kDa cleavage product of PARP, indicative of apoptosis. (B) The effect of compound 2 on the levels of the cell cycle proteins in AGS cells (wild-type 53). […] Equal amounts of cell lysate were separated by SDS-PAGE and analysed by immunoblotting using the indicated antibodies. An estimation of the extent of cell rounding is indicated above each lane. (C) The effect of negative control compound (refer Example 10), compound 2, cisplatin, and anisomycin on the levels of key proteins in MCF7 cells. […] Cisplatinum and anisomycin (a transcription inhibitor) treatments were with 50 μM or 37 μM, respectively. Cells were harvested at various time points; afterwards lysates were prepared and separated by SDS-PAGE and analysed by immunoblotting. The proteins detected are indicated. The extent of rounded or floating cells and the percentage viable cells were assessed. […] Equal amounts of cell lysate were separated by SDS-PAGE and analysed by immunoblotting using a range of antibodies. An estimation of the extent of cell rounding is indicated above each lane. […] SJSA1 cells were treated with 5 times [IC50] of compound 2 and collected at the indicated time points. Equal amounts of cell lysate were separated by SDS-PAGE and analysed by immunoblotting using a range of antibodies. An estimation of the extent of cell rounding is indicated above each lane.
Cells were treated with 5 times [IC50] of compound 2 and collected at various time points. The percentage of rounded cells was counted before cells were trypsinised and counted for cell viability using trypan blue.
Cells were lysed and equal amounts were analysed by SDS-polyacrylamide gel electrophoresis (SDS-PAGE) and immunoblotting. […] The reduction in E2F-1 levels correlated with reduction in E2F transcriptional activity as determined by an E2F-dependent luciferase reporter assay (refer Example 6).

[4] = test system: SJSA-1; experiment: 72-h MTT cytotoxicity assay, SJSA-1; assay type: cell-based; conditions: Homo sapiens, SJSA-1; 72-h MTT; Table 1; read-out: IC50 Anti-proliferative effect on cell line SJSA-1
Method in brief: as §1

[5] = molecular target: T1, HDM2 (Homo sapiens, UniProt Q00987); experiment: Fluorescence polarisation competitive HDM2 binding assay; conditions: text of Example 10, refer Table 1; read-out: competitive inhibition IC50
T1 construct: Recombinant HDM2 (1.5 μg per well) in TBS-BSA buffer
T1 sequence (Q00987 whole entry): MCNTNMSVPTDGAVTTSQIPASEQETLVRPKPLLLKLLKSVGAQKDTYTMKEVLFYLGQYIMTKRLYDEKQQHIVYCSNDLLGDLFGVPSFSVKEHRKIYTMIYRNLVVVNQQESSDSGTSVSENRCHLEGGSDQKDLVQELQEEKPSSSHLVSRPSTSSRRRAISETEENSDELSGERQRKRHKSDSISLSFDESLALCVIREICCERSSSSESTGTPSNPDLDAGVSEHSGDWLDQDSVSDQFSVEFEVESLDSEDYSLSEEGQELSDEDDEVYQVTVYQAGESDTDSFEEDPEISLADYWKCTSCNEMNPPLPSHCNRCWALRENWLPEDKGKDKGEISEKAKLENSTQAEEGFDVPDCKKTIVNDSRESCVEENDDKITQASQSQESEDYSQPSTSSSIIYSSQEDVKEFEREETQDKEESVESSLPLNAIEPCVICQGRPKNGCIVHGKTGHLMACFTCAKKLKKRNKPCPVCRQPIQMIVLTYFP
Method in brief: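 Recombinant HDM2 (1.5 μg/well) was preincubated 5 min at room temperature with serially diluted compound in 50 mM Tris pH 7.4, 150 mM NaCl, 0.1% BSA, 5% DMSO final. Fluorescein-labelled p53 peptide (0.2 μM) was then added for 45 min. Polarisation was read at 485/520 nm and IC50 derived from dose-response curves.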

[6] = test system: H1299; experiment: 72-h MTT cytotoxicity assay, H1299; assay type: cell-based; conditions: Homo sapiens, NCI-H1299; 72-h MTT; Table 1; read-out: IC50 Anti-proliferative effect on cell line H 1299
Method in brief: as §1

[7] = test system: AGS cells; experiment: Caspase activity (casp ACE assay), AGS; assay type: cell-based, human; conditions: 24 hours
Experimental: In more detail: (A) Cells were treated with […] [IC50] of compound 2 or cisplatinum and collected at the time points indicated. Cell lysates were prepared, the caspase activity was determined using the casp ACE assay and values were plotted on a graph. (B) Cells were treated with 5 times [IC50] of compound 2 or cisplatinum and collected at the time points indicated. AGS cells were also incubated with compound 2 in the presence of a caspase inhibitor Z-VAD.fmk. Cell lysates were prepared, the caspase activity was determined using the casp ACE assay and values were plotted on a graph.
To characterise the apoptosis-inducing properties of bisarylsulfonamides caspase ⅓ activty was measured. AGS or H1299 cells were treated with a low concentration of compound 2 or cisplatin corresponding to twice the IC50 value (FIG. 6A). Morphological changes were detected in 10-20% of cells by 72 hours corresponding to an induction of caspase activity first detected at 48 hours, increasing by 72 hours. We also treated AGS and H1299 cells with higher concentrations corresponding to five times the IC50 (FIG. 6B). In this experiment we included a […], Z-VAD.fmk to determine the caspase responsible.

IC50 [5]	Structure (SMILES)	IC50 [1]	PARP cleavage / PARP levels ([2]; five times IC50, 85-kDa cleavage product marker for apoptosis)	changes in protein levels and cell morphology ([2]; negative control: MCF7, 13.5 μM, 68/69: MCF7 and H1299 at five times IC50 of 69, 49: AGS, SJSA1, H1299)	cell rounding [3]	IC50 [4]	IC50 [6]	caspase activity induced by compound 2 in presence of caspase inhibitor [7]
151 µM	O=[N+]([O-])c1csc(S(=O)(=O)Nc2ccc(Cl)cc2)c1 [Compound 69, 4-Nitro-thiophene-2-sulfonic acid (4-chloro-phenyl)-amide]	19 µM	Rapid reduction in PARP levels	induced changes in both morphology and protein levels	No rapid cell rounding	28 µM	30 µM	–
–	COC(=O)C[C@H](NC(=O)[C@H](C)NC(=O)[C@@H](NC(=O)OCc1ccccc1)C(C)C)C(=O)CF [Z-VAD.fmk, reference compound] (Cbz-Val-Ala-Asp(OMe)-CH2F)	–	–	–	–	–	–	reduced the caspase activity to background levels
